For the assay, the target named is T1, LUSH (Drosophila melanogaster, UniProt O02372).
T1 sequence (O02372 30-153): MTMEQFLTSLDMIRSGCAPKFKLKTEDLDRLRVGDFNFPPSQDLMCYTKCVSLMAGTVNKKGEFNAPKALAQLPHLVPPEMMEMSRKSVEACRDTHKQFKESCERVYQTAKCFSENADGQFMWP
Nature of the assay: fluorescence titration. The assay is classed as binding. The note with it: read-out: dissociation constant. Here is the method:
fluorescence titration on LUSH | A saturable NPN fluorescence change was recorded by a fluorometer and the dissociation constant

Consider `c1ccc(Nc2cccc3ccccc23)cc1` [N-phenyl-1-naphthylamine], for which the Kd turned out to be 2.39 µM.

The values above are taken from PMC5385555, “Molecular basis for the behavioral effects of the odorant degrading enzyme Esterase 6 in Drosophila” (Scientific Reports, 2017).
